Assays:
[1] = system: Phosphatidylinositol 4,5-bisphosphate 3-kinase catalytic subunit alpha isoform (Homo sapiens), P42336 [I800L]
[2] = target: Tyrosine-protein kinase JAK2 (Homo sapiens) (UniProt O60674)
[3] = target: MAP kinase-activated protein kinase 2 (Homo sapiens) (UniProt P49137)
[4] = target: Serine/threonine-protein kinase ICK (Homo sapiens) (UniProt Q9UPZ9)
[5] = target: T1, Serine/threonine-protein kinase Nek9 (Homo sapiens) (UniProt Q8TD19)
T1 sequence (whole entry): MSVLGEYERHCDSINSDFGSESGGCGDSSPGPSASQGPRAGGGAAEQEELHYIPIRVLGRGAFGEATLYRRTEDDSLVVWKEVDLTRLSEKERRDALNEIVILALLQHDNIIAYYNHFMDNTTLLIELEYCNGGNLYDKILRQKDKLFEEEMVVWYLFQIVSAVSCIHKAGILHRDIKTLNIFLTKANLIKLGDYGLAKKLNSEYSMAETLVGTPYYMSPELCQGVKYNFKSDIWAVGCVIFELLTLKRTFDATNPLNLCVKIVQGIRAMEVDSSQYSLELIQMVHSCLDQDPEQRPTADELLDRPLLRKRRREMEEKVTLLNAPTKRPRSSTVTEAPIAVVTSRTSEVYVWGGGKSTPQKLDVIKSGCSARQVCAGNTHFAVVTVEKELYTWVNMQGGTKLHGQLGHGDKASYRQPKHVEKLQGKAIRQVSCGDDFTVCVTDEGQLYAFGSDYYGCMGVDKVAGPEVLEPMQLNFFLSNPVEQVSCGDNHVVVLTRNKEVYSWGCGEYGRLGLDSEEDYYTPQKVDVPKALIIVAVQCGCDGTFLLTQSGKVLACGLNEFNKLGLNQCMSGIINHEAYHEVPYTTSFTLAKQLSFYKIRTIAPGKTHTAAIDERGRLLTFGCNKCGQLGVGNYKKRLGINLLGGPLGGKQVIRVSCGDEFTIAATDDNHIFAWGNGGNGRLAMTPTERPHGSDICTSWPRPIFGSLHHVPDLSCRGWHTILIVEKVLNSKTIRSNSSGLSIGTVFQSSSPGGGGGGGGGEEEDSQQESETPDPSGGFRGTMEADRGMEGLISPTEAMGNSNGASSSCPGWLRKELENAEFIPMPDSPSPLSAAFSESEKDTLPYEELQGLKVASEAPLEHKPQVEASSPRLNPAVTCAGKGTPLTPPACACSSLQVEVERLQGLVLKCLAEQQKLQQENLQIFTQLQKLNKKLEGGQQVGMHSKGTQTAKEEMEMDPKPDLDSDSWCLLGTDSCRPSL

[6] = target: cAMP-dependent protein kinase catalytic subunit beta (Homo sapiens) (UniProt P22694)
[7] = target: Citron Rho-interacting kinase (Homo sapiens) (UniProt O14578)
[8] = target: Tyrosine-protein kinase Srms (Homo sapiens) (UniProt Q9H3Y6)
[9] = target: T2, Discoidin domain-containing receptor 2 (Homo sapiens) (UniProt Q16832)
T2 sequence (whole entry): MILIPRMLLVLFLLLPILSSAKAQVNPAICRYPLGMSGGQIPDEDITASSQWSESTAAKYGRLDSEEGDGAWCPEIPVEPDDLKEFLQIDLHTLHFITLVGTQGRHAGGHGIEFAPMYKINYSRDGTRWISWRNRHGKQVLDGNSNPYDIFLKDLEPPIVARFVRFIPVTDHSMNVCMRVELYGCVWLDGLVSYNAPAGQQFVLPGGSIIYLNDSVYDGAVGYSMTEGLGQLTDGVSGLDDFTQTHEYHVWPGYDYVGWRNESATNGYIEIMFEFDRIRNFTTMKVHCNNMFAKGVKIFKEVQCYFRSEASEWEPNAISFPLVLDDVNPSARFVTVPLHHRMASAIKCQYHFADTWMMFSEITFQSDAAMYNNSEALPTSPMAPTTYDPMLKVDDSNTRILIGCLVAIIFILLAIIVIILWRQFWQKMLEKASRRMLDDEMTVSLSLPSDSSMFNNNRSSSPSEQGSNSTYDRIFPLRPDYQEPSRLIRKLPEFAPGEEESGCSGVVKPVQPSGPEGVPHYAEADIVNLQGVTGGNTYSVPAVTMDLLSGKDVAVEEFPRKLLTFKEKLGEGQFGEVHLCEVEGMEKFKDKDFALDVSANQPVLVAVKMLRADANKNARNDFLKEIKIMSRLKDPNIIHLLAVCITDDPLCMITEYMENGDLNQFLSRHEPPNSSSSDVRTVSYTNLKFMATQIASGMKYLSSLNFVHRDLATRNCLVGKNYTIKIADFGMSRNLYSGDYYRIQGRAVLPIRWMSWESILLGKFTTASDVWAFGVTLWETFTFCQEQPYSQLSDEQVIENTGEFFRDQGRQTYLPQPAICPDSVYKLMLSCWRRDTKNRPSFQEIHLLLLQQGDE

[10] = target: Myosin-IIIb (Homo sapiens) (UniProt Q8WXR4)
[11] = target: T3, cGMP-dependent protein kinase 1 (Homo sapiens) (UniProt Q13976)
T3 sequence (whole entry): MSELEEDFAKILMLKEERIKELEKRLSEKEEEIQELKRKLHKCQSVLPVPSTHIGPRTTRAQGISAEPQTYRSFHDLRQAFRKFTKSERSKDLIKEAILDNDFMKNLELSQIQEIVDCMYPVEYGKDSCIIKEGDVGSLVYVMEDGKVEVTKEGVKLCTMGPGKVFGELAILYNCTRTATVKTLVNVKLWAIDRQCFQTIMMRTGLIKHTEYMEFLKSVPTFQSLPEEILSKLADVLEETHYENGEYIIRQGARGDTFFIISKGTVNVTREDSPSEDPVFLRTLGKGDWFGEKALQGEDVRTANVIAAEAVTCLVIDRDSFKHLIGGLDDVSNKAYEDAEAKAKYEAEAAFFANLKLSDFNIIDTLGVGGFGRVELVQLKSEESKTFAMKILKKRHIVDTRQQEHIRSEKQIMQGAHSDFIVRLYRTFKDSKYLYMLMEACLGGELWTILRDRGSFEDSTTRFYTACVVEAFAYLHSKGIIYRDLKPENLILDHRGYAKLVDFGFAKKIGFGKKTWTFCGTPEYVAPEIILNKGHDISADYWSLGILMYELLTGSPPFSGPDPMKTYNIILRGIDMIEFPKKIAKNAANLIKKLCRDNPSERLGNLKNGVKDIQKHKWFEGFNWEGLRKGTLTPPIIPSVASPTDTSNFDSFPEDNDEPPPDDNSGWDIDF

[12] = Compound concentration 1000.0 nM
[13] = Compound concentration 100.0 nM

Measured: residual activity

Sequence of Phosphatidylinositol 4,5-bisphosphate 3-kinase catalytic subunit alpha isoform (Homo sapiens), P42336 [I800L] (P42336 whole entry I800L, canonical isoform): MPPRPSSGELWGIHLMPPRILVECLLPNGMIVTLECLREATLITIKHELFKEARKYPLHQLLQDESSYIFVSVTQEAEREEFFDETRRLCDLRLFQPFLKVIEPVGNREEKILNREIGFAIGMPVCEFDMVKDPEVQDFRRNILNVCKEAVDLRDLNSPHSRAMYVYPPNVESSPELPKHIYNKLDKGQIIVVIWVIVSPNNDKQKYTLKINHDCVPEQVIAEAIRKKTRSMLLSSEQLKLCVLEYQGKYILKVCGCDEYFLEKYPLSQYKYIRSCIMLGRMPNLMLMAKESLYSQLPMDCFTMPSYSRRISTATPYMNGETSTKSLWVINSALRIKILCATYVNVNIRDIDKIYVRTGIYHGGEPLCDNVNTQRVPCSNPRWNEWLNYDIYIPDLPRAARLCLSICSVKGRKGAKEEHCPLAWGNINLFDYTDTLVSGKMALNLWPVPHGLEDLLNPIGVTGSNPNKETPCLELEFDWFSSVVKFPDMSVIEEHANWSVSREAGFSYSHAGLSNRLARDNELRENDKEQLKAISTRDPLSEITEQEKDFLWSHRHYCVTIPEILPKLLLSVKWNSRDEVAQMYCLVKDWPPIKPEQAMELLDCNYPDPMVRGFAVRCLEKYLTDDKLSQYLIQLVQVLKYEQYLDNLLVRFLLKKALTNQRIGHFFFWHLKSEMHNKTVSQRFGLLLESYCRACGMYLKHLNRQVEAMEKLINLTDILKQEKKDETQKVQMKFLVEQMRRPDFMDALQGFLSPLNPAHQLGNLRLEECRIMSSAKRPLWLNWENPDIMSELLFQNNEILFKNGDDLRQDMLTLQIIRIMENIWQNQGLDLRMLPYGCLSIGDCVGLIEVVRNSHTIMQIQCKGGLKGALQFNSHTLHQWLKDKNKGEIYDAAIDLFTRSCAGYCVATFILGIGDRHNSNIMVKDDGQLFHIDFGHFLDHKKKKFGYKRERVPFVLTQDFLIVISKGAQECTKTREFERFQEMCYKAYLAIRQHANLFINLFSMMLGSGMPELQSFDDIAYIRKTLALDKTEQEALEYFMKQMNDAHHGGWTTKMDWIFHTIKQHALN
Sequence of Tyrosine-protein kinase Srms (Homo sapiens) (Q9H3Y6 whole entry, the tested form may be a part): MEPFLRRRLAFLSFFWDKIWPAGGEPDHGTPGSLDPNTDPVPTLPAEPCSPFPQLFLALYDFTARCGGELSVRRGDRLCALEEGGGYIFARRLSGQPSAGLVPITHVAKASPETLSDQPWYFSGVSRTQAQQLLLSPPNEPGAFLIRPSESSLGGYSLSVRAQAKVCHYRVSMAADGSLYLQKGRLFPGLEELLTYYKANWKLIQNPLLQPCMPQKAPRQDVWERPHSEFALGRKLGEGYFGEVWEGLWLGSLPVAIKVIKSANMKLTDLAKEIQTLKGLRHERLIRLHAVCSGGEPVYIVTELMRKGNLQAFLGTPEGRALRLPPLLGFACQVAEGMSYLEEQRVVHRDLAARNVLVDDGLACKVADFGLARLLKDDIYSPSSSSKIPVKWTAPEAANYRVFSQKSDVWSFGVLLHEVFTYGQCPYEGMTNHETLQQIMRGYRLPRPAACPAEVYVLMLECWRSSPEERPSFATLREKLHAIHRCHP
Sequence of MAP kinase-activated protein kinase 2 (Homo sapiens) (P49137 whole entry, looked up): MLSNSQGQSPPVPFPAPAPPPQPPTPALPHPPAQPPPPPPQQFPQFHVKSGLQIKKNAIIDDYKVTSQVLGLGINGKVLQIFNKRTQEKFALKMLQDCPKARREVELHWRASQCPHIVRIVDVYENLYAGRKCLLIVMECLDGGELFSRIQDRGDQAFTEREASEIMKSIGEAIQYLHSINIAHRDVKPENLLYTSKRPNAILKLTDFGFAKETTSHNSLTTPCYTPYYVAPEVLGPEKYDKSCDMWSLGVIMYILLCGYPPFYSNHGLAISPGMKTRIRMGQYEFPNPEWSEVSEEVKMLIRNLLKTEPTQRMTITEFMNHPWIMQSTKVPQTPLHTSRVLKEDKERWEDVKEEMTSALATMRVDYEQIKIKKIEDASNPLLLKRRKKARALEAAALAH
Sequence of Serine/threonine-protein kinase ICK (Homo sapiens) (Q9UPZ9 whole entry): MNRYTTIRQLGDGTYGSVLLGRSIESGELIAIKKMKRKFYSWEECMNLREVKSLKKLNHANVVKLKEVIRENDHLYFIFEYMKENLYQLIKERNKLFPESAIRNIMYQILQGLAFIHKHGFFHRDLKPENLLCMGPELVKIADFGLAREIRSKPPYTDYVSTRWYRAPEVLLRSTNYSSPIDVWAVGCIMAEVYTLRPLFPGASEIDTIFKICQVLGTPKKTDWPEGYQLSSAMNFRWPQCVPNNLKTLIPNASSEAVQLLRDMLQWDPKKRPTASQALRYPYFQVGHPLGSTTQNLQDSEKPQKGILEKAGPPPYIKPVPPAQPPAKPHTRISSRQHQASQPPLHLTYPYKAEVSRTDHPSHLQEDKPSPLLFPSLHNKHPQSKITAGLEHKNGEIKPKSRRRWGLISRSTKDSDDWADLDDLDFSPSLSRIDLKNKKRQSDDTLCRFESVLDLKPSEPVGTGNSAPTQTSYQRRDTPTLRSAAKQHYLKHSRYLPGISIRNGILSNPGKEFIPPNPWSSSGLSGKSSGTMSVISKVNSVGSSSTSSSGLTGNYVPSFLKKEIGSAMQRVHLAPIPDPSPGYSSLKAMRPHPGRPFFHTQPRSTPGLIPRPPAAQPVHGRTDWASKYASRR
Sequence of Tyrosine-protein kinase JAK2 (Homo sapiens) (O60674 whole entry): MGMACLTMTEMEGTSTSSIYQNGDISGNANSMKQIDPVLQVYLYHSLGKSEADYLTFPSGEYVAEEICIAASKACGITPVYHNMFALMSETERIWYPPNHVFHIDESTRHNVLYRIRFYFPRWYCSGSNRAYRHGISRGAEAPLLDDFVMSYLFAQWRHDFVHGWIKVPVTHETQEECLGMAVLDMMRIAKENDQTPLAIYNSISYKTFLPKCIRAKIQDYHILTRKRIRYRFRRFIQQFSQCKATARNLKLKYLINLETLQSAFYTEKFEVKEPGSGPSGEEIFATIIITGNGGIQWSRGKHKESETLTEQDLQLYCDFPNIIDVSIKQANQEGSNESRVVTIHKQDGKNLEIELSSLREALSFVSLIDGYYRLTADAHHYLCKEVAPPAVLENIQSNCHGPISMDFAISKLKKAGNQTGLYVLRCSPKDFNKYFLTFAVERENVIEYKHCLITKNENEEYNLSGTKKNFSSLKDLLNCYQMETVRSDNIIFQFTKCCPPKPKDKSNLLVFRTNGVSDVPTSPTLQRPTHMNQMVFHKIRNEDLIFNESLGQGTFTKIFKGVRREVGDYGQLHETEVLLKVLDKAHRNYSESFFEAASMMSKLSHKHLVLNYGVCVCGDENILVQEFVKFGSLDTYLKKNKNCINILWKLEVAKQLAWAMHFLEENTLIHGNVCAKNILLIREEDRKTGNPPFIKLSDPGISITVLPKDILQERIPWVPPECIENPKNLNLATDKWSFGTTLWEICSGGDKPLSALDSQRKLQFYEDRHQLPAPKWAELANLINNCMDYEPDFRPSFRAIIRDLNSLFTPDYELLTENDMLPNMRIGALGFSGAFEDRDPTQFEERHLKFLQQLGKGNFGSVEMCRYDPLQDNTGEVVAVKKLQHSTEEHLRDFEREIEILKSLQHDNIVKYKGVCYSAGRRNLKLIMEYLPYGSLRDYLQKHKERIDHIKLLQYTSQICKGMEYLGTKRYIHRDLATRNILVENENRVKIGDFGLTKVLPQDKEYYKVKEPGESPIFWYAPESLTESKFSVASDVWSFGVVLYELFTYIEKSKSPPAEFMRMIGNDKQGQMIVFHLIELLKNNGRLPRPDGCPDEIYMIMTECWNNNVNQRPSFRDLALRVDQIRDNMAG
Sequence of Myosin-IIIb (Homo sapiens) (Q8WXR4 whole entry): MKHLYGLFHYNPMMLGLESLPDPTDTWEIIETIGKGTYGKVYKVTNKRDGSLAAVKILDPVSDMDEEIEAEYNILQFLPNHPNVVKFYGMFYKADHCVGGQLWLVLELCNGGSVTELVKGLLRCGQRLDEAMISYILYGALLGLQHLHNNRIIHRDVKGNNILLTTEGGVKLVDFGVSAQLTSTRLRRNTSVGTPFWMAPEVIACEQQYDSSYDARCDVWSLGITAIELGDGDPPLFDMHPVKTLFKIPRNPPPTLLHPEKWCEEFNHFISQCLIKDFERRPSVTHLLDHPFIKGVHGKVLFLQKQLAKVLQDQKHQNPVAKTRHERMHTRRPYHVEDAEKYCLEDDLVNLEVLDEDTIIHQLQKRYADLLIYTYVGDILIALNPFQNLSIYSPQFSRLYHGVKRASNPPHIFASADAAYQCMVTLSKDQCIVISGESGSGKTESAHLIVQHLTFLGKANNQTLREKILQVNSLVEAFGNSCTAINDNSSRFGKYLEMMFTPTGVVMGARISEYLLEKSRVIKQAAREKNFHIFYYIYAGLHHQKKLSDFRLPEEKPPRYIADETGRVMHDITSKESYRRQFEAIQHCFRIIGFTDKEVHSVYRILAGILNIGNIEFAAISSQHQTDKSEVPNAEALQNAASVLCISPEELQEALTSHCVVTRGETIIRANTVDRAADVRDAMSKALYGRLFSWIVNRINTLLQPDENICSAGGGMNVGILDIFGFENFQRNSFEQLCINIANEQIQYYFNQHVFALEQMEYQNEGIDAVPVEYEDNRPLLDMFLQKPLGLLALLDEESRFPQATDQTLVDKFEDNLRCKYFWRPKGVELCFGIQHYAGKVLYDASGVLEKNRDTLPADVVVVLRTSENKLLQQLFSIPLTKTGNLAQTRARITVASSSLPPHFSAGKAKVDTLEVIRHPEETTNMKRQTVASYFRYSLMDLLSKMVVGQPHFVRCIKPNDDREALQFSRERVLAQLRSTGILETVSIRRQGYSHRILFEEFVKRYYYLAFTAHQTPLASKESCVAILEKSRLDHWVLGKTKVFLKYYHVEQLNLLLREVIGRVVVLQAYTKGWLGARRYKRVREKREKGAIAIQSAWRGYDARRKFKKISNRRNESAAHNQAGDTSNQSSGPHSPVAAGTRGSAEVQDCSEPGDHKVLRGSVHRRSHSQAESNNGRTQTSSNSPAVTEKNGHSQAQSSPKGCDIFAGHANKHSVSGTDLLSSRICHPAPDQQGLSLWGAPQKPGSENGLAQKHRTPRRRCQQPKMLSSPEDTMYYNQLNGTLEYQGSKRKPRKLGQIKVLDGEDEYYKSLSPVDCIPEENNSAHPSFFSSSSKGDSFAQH

C[C@@H]1CN(c2cc(-c3nn(C)c4ccc(OC5(C)CC5)cc34)ncn2)C[C@H](C)O1 [MLi-2-NC]
inactive: [1]; [12] 66% | [2]; [12] 55% | [3]; [12] 93% | [4]; [12] 78% | [5]; [12] 71% | [6]; [12] 100% | [7]; [12] 100% | [8]; [12] 83% | [9]; [12] 79% | [10]; [12] 100% | [11]; [12] 100%

C[C@@H]1CN(c2cc(-c3n[nH]c4ccc(OC5(C)CC5)cc34)ncn2)C[C@H](C)O1 [MLi-2]
inactive: [1]; [13] 87% | [2]; [13] 77% | [3]; [13] 96% | [4]; [13] 62% | [5]; [13] 100% | [6]; [13] 91% | [7]; [13] 69% | [8]; [13] 59% | [9]; [13] 82% | [10]; [13] 89% | [11]; [13] 100%
